Patent US20170232083A1, “METHODS OF DIAGNOSIS AND TREATMENT OF CELIAC DISEASE IN CHILDREN” (priority 2014, published 2017)

Tested on: PBMC (polyclonal gluten-specific T cells) of paediatric and adult CD patients
Test: IFN-γ ELISpot of PBMC after 3 day oral wheat challenge (SFU, % of maximal peptide response, dominance scores, EC50; Examples 5-6)
Type: cell-based, human
Conditions: for Cross-reactive T cell response: following wheat challenge; for IFN-γ ELISpot response: after oral wheat challenge; for IFN-γ ELISpot responses Day 0 prior to vs Day 6 after wheat challenge: p<0.05, Kruskal Wallis
[1] = subject I (3-5yrs/6-10yrs part)
[2] = subject J (3-5yrs/6-10yrs part)
[3] = subject K (3-5yrs/6-10yrs part)
[4] = subject V (3-5yrs/6-10yrs part)
[5] = subject W (3-5yrs/6-10yrs part)
[6] = subject Y (3-5yrs/6-10yrs part)
[7] = subject five (3-5yrs/6-10yrs part)
[8] = subject seven (3-5yrs/6-10yrs part)
[9] = subject six (3-5yrs/6-10yrs part)
[10] = subject ten (3-5yrs/6-10yrs part)
[11] = subject two (3-5yrs/6-10yrs part)
[12] = patient A, 11-17 yrs, cut-off 10 SFU
[13] = patient E, H, 11-17 yrs, cut-off 10 SFU
[14] = patient F, 11-17 yrs, cut-off 10 SFU
[15] = patient G, 11-17 yrs, cut-off 10 SFU
[16] = patient H (HLA-DQ2.5 homozygote), 3-5yrs, cut-off 10 SFU
[17] = patient H, 11-17 yrs, cut-off 10 SFU
[18] = patient ID not given, 11-17 yrs, cut-off 10 SFU
[19] = patient N, 3-5yrs, cut-off 10 SFU
[20] = patient P, 11-17 yrs, cut-off 21.6 SFU
[21] = patient Q, 11-17 yrs, cut-off 10 SFU
[22] = patient U, H, 11-17 yrs, cut-off 10 SFU
[23] = patient V, 6-10 yrs, cut-off 10 SFU
[24] = patient Y, 6-10 yrs, cut-off 10 SFU
[25] = patient eleven, 6-10 yrs, cut-off 10 SFU
[26] = patient four, 3-5yrs, cut-off 10 SFU
[27] = patient seven, 6-10 yrs, cut-off 10.5 SFU
[28] = patient ten, 3-5yrs, cut-off 10 SFU
[29] = patient three, 6-10 yrs, cut-off 10.5 SFU
[30] = patient twelve, 11-17 yrs, cut-off 10 SFU
[31] = patient two, 3-5yrs, cut-off 10 SFU

## QPFPQPEQPFSWQ
Subject A, 11-17yrs
  Cross-reactive T cell response: 0 SFU
Subject D, 11-17yrs
  Significant response as a percentage of maximal peptide SFU: ′′′ (41-70% = ′′′)
  Cross-reactive T cell response: 16 SFU
Subject E, 11-17yrs
  Significant response as a percentage of maximal peptide SFU: ′ (11-20% = ′)
  Cross-reactive T cell response: 34 SFU
Subject F, 11-17yrs
  Significant response as a percentage of maximal peptide SFU: ′ (11-20% = ′)
  Cross-reactive T cell response: 19 SFU
Subject G, 11-17yrs
  Cross-reactive T cell response: 6 SFU
Subject H
  Cross-reactive T cell response: 1 SFU
[1]
  Cross-reactive T cell response: 2 SFU
Subject J
  Significant response as a percentage of maximal peptide SFU: ′′′ (41-70% = ′′′)
[2]
  Cross-reactive T cell response: 79 SFU
Subject K
  Significant response as a percentage of maximal peptide SFU: ′′ (21-40% = ′′)
[3]
  Cross-reactive T cell response: 20 SFU
Subject P, 11-17yrs
  Cross-reactive T cell response: 14 SFU
Subject Q, 11-17yrs
  Significant response as a percentage of maximal peptide SFU: ′′ (21-40% = ′′)
  Cross-reactive T cell response: 29 SFU
Subject T, 11-17yrs
  Significant response as a percentage of maximal peptide SFU: ′′′ (41-70% = ′′′)
  Cross-reactive T cell response: 41 SFU
Subject U, 11-17yrs
  Significant response as a percentage of maximal peptide SFU: ′′ (21-40% = ′′)
  Cross-reactive T cell response: 18 SFU
Subject V
  Significant response as a percentage of maximal peptide SFU: + (>70% = +)
[4]
  Cross-reactive T cell response: 25 SFU
[5]
  Cross-reactive T cell response: 3 SFU
[6]
  Cross-reactive T cell response: 8 SFU
Subject five
  Significant response as a percentage of maximal peptide SFU: + (>70% = +)
[7]
  Cross-reactive T cell response: 42 SFU
Subject nine, 11-17yrs
  Cross-reactive T cell response: 1 SFU
[8]
  Cross-reactive T cell response: 6 SFU
[9]
  Cross-reactive T cell response: 8 SFU
[10]
  Cross-reactive T cell response: 0 SFU
Subject two
  Significant response as a percentage of maximal peptide SFU: ′′ (21-40% = ′′)
[11]
  Cross-reactive T cell response: 26 SFU

## PFPQQPQQPFPQP
[12]
  IFN-γ ELISpot response: 0 SFU
[13]
  IFN-γ ELISpot response: 0 SFU
[14]
  IFN-γ ELISpot response: 1 SFU
[15]
  IFN-γ ELISpot response: 0 SFU
[16]
  IFN-γ ELISpot response: 4 SFU
[17]
  IFN-γ ELISpot response: 2 SFU
[18]
  IFN-γ ELISpot response: 0 SFU
[19]
  IFN-γ ELISpot response: 2 SFU
[20]
  IFN-γ ELISpot response: 14 SFU
[21]
  IFN-γ ELISpot response: 9 SFU
[22]
  IFN-γ ELISpot response: 2 SFU
[23]
  IFN-γ ELISpot response: 3 SFU
[24]
  IFN-γ ELISpot response: 6 SFU
[25]
  IFN-γ ELISpot response: 3 SFU
[26]
  IFN-γ ELISpot response: 0 SFU
[27]
  IFN-γ ELISpot response: 1 SFU
[28]
  IFN-γ ELISpot response: 12 SFU
Patient ten, max peptide 14.5 SFU
  Significant response as percentage of maximal peptide SFU: + (>70% = +)
[29]
  IFN-γ ELISpot response: 5 SFU
[30]
  IFN-γ ELISpot response: 2 SFU
[31]
  IFN-γ ELISpot response: 3 SFU

## QPPFSEEQEQPLPQ [gluten peptide described by Vader et al, reference compound]
Example 5, 2/30
  positive polyclonal T cell response after wheat challenge, proportion: 6.7%
Example 6, 2/30
  polyclonal T cell responses following wheat challenge, volunteers: 6.7%

## GIIQPQQPAQL
[15]
  IFN-γ ELISpot response: 0 SFU
[17]
  IFN-γ ELISpot response: 1 SFU
[18]
  IFN-γ ELISpot response: 2 SFU
Patient II, max peptide 15 SFU
  Significant response as percentage of maximal peptide SFU: + (>70% = +)
Patient K, max peptide 53 SFU
  Significant response as percentage of maximal peptide SFU: ′′ (21-40% = ′′)
[20]
  IFN-γ ELISpot response: 7 SFU
[21]
  IFN-γ ELISpot response: 0 SFU
[22]
  IFN-γ ELISpot response: 4 SFU
[23]
  IFN-γ ELISpot response: 5 SFU
[24]
  IFN-γ ELISpot response: 2 SFU
[25]
  IFN-γ ELISpot response: 1 SFU
[26]
  IFN-γ ELISpot response: 0 SFU
[27]
  IFN-γ ELISpot response: 3 SFU
[28]
  IFN-γ ELISpot response: 5 SFU
[29]
  IFN-γ ELISpot response: 3 SFU
[31]
  IFN-γ ELISpot response: 0 SFU

## QPFPQPEQPIPYQ
Subject A, 11-17yrs
  Cross-reactive T cell response: 8 SFU
Subject D, 11-17yrs
  Significant response as a percentage of maximal peptide SFU: + (>70% = +)
  Cross-reactive T cell response: 23 SFU
Subject E, 11-17yrs
  Significant response as a percentage of maximal peptide SFU: ′′ (21-40% = ′′)
  Cross-reactive T cell response: 86 SFU
Subject F, 11-17yrs
  Significant response as a percentage of maximal peptide SFU: ′′′ (41-70% = ′′′)
  Cross-reactive T cell response: 84 SFU
Subject G, 11-17yrs
  Cross-reactive T cell response: 2 SFU
Subject H
  Cross-reactive T cell response: 3 SFU
[1]
  Cross-reactive T cell response: 5 SFU
Subject J
  Significant response as a percentage of maximal peptide SFU: ′′′ (41-70% = ′′′)
[2]
  Cross-reactive T cell response: 124 SFU
Subject K
  Significant response as a percentage of maximal peptide SFU: ′′ (21-40% = ′′)
[3]
  Cross-reactive T cell response: 21 SFU
Subject P, 11-17yrs
  Significant response as a percentage of maximal peptide SFU: ′′′ (41-70% = ′′′)
  Cross-reactive T cell response: 33 SFU
Subject Q, 11-17yrs
  Significant response as a percentage of maximal peptide SFU: ′′′ (41-70% = ′′′)
  Cross-reactive T cell response: 58 SFU
Subject T, 11-17yrs
  Significant response as a percentage of maximal peptide SFU: + (>70% = +)
  Cross-reactive T cell response: 84 SFU
Subject U, 11-17yrs
  Significant response as a percentage of maximal peptide SFU: ′′′ (41-70% = ′′′)
  Cross-reactive T cell response: 55 SFU
Subject V
  Significant response as a percentage of maximal peptide SFU: ′′′ (41-70% = ′′′)
[4]
  Cross-reactive T cell response: 22 SFU
[5]
  Cross-reactive T cell response: 11 SFU
Subject Y
  Significant response as a percentage of maximal peptide SFU: ′′′ (41-70% = ′′′)
[6]
  Cross-reactive T cell response: 11 SFU
Subject five
  Significant response as a percentage of maximal peptide SFU: ′′′ (41-70% = ′′′)
[7]
  Cross-reactive T cell response: 30 SFU
Subject nine, 11-17yrs
  Cross-reactive T cell response: 0 SFU
[8]
  Cross-reactive T cell response: 8 SFU
Subject six
  Significant response as a percentage of maximal peptide SFU: + (>70% = +)
[9]
  Cross-reactive T cell response: 11 SFU
[10]
  Cross-reactive T cell response: 9 SFU
Subject two
  Significant response as a percentage of maximal peptide SFU: ′′′ (41-70% = ′′′)
[11]
  Cross-reactive T cell response: 31 SFU

## PFPLQPEQPFPQP
[12]
  IFN-γ ELISpot response: 6 SFU
Patient D, max peptide 30.5 SFU
  Significant response as percentage of maximal peptide SFU: ′′′ (41-70% = ′′′)
[13]
  IFN-γ ELISpot response: 30 SFU
Patient E, max peptide 224 SFU
  Significant response as percentage of maximal peptide SFU: ′ (11-20% = ′)
[14]
  IFN-γ ELISpot response: 35 SFU
Patient F, max peptide 178 SFU
  Significant response as percentage of maximal peptide SFU: ′ (11-20% = ′)
[15]
  IFN-γ ELISpot response: 2 SFU
[16]
  IFN-γ ELISpot response: 24 SFU
[17]
  IFN-γ ELISpot response: 11 SFU
Patient H, max peptide 17 SFU
  Significant response as percentage of maximal peptide SFU: ′′′ (41-70% = ′′′)
[18]
  IFN-γ ELISpot response: 28 SFU
Patient ID not given, max peptide 95 SFU
  Significant response as percentage of maximal peptide SFU: ′′ (21-40% = ′′)
Patient II, max peptide 15 SFU
  Significant response as percentage of maximal peptide SFU: + (>70% = +)
Patient J, max peptide 196 SFU
  Significant response as percentage of maximal peptide SFU: ′′ (21-40% = ′′)
Patient K, max peptide 53 SFU
  Significant response as percentage of maximal peptide SFU: ′′′ (41-70% = ′′′)
Patient M, max peptide 48 SFU
  Significant response as percentage of maximal peptide SFU: ′′′ (41-70% = ′′′)
[19]
  IFN-γ ELISpot response: 7 SFU
[20]
  IFN-γ ELISpot response: 27 SFU
Patient P, max peptide 64 SFU
  Significant response as percentage of maximal peptide SFU: ′′′ (41-70% = ′′′)
[21]
  IFN-γ ELISpot response: 43 SFU
Patient Q, max peptide 97 SFU
  Significant response as percentage of maximal peptide SFU: ′′′ (41-70% = ′′′)
[22]
  IFN-γ ELISpot response: 23 SFU
Patient U, max peptide 81 SFU
  Significant response as percentage of maximal peptide SFU: ′′ (21-40% = ′′)
[23]
  IFN-γ ELISpot response: 21 SFU
Patient V, max peptide 35 SFU
  Significant response as percentage of maximal peptide SFU: ′′′ (41-70% = ′′′)
Patient W, max peptide 30 SFU
  Significant response as percentage of maximal peptide SFU: + (>70% = +)
[24]
  IFN-γ ELISpot response: 9 SFU
Patient eight, max peptide 12 SFU
  Significant response as percentage of maximal peptide SFU: + (>70% = +)
[25]
  IFN-γ ELISpot response: 8 SFU
Patient five, max peptide 48 SFU
  Significant response as percentage of maximal peptide SFU: + (>70% = +)
[26]
  IFN-γ ELISpot response: 22 SFU
Patient four, max peptide 44 SFU
  Significant response as percentage of maximal peptide SFU: ′′′ (41-70% = ′′′)
[27]
  IFN-γ ELISpot response: 27 SFU
Patient seven, max peptide 27 SFU
  Significant response as percentage of maximal peptide SFU: + (>70% = +)
[28]
  IFN-γ ELISpot response: 8 SFU
[29]
  IFN-γ ELISpot response: 52 SFU
[30]
  IFN-γ ELISpot response: 15 SFU
[31]
  IFN-γ ELISpot response: 24 SFU
Patient two, max peptide 60 SFU
  Significant response as percentage of maximal peptide SFU: ′′ (21-40% = ′′)

## tetanus toxoid: positive control antigen (CSL, Australia) [reference compound]
  IFN-γ ELISpot responses Day 0 prior to vs Day 6 after wheat challenge: no difference
Listed as Tetanus toxoid
  IFN-γ ELISpot responses Day 0 prior to vs Day 6 after wheat challenge: did not differ
